From patent US10172816B2, “Method of treating chronic obstructive pulmonary disease (CPD) with verproside” (YUNGJIN PHARMACEUTICAL CO., LTD, priority 2013, dated 2019)

Assays:
[1] = target: ADBR2 (beta-2 adrenergic receptor) GPCR (Homo sapiens, UniProt P07550); assay: ADBR2 GPCR-targeting cell-based assay (spot formation); settings: 20 micromole; U2OS cells stably expressing ADBR2 GPCR
[2] = system: Mucin 5A/C; assay: Acrolein-induced Mucin 5A/C expression in A549 cells (RT-PCR); type: cell-based, human; settings: pre-treated 1 hour, then 30 nM acrolein, dose dependent
Procedure: The diluted A549 cell line (ATCC, CCL-185) with DMEM medium supplemented with 5% phenol red and FBS (Fetal Bovine Serum) was seeded in 6 well plates (4×10^5 cells/well) to adhere thereto for a night, and 20 and 40 microgram/ml of ATC2 extract were treated with A549 cell line for 1 hours. 30 nM acrolein was treated therewith to induce Mucin 5A/C expression. The medium was removed the cell, washed with PBS solution and homogenized with Trizol (Invitrogen, CA, USA) for the isolation of ribonucleic acids from the cells for 5 mins. the cells were collected, transferred to centrifugal separator, completely mixed with chloroform for 15 seconds, left alone for 3 mins and centrifuged for 15 mins at the speed of 14,000 rpm. The supernatant containing ribonucleic acid was transferred to new tube and mixed with isopropylalcohol for 10 mins. The solution was centrifuged to discard the supernatant and 75% ethanol was added to the precipitate. The precipitate was centrifuged for 5 mins at the speed of 10,000 rpm and the supernatant was discarded. The precipitated ribonucleic acid was dried at room temperature for 20 mins. […] After the quantification of ribonucleic acid, the complementary DNA was synthesized using by 1 microgram of RNA and RT-kit (Omniscript RT kit, Qiagen, USA) and the synthetic cDNA was used as a template. […]

[3] = system: inflammatory immunocytes and neutrophils in BALF; assay: COPD mouse model (LPS+CS, i.t.): immunocytes, neutrophils and T lymphocytes in BALF; type: in vivo, BALB/c mice; settings: 15 mg/kg, p.o.
Procedure: Specific pathogen-free male BALB/c mice (about 18-20 g), aged 8 weeks, which were routinely screened serologically for relevant respiratory pathogens, were purchased from ORIENT Co. (www.orient.co.kr, Seoul, Korea) and bred allowing to access freely to feed and water in breeding room controlling the temperature of 22±2° C., and humidity of 55±15% at the light-dark cycle for 12 hours and acclimated with the experimental environment for 1 week. […] 8 weeks aged BALB/c male mice was anaesthetized with 7% chloral hydrate and 100 μl of LPS+CS mixture {LPS (100 μg/ml)+standard cigarette extract (Cigarette smoking (CS), 4 mg/ml)=1:1} was inhaled to mice (i.t.) for three weeks once a week to prepare COPD animal model. Briefly, 100 μl of LPS+CS mixture was evenly inhaled to nose and mouth of fastened mice (i.t). […] After the end of experiment, the blood, BALF, and pneumonocyte of each mice were isolated and collected to test. After blood collection, 1 ml of FBS-free/DMEM medium contained in injector was injected to the trachea of autopsied mice, and the mice was fixed with string to circulate the blood three times and isolate the cell from BALF. […] The isolated PBMCs, BAL (Bronchoalveolar lavage), and pneumocyte were adjusted to 5×10^5 cells and performed to immunofluorescence staining at 4° C. PE-anti-CD3e (553064, BD Pharmingen, USA), FITC-anti-CD8 (553031, BD Pharmingen, USA), PE-anti-CD4 (553047, BD Pharmingen, USA), PE-anti-Gr-1 (553128, BD Pharmingen, USA), and FITC-anti-neutrophil (ab55453, Abcam, UK) were added thereto, respectively, and reacted for 30 mins in ice. After the reaction, the cells were washed with phosphate buffered physiological saline solution more than three times and the cell frequency (%) of CD3^+CD4^+& CD3^+CD8^+, and Gr-1^+Neutrophil^+ was determined using by Cell Quest program (643274, BD Biosciences, USA) of the flow cytometer (FACSCalibur, Becton, Dickinson, USA) and the absolute total number in each tissue was calculated by applying total cells.

[4] = system: TNF-α; assay: COPD mouse model (LPS+CS): TNF-α in BALF by ELISA; type: in vivo, BALB/c mice; settings: 15 mg/kg, p.o.
Procedure: 8 weeks aged BALB/c male mice was anaesthetized with 7% chloral hydrate and 100 μl of LPS+CS mixture {LPS (100 μg/ml)+standard cigarette extract (Cigarette smoking (CS), 4 mg/ml)=1:1} was inhaled to mice (i.t.) for three weeks once a week to prepare COPD animal model. Briefly, 100 μl of LPS+CS mixture was evenly inhaled to nose and mouth of fastened mice (i.t). […] After the end of experiment, the blood, BALF, and pneumonocyte of each mice were isolated and collected to test. The level of IL-1β, IL-6, TNF-a, IL-17, MCP-1, and GRO-a (BioSource, USA) in BALF isolated from mice was determined by enzyme-linked immuno-sorbent assay. Respective antibodies against L-1β, IL-6, TNF-a, IL-17, MCP-1, and GRO-a were diluted with a coating buffer solution (291195, R&D System, USA), coated on a microwell and left alone for overnight at 4° C. Each well was washed three times with washing buffer solution and 100 μl of 10-fold diluted serum was added thereto. […] The solution was left alone for 30 mins in shadow and added with 50 μl of stop solution (DY994, R&D system, USA) to determine the absorbance using by ELISA leader at 450 nm (340PC384, Molecular Devices, USA).

Chain of ADBR2 (beta-2 adrenergic receptor) GPCR (P07550 whole entry): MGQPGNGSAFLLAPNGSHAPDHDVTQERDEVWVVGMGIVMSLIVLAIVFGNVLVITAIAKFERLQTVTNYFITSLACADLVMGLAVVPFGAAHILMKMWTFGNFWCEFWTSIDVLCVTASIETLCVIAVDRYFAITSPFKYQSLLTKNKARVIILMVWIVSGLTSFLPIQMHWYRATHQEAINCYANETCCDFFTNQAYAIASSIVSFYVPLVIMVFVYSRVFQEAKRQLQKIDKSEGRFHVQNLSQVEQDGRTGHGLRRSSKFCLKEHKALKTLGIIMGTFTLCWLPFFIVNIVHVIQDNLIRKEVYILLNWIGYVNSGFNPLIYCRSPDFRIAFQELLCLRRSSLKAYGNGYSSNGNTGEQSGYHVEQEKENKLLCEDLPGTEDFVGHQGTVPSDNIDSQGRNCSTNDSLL

spot formation [1]: did not show spot formation
SMILES: O=C(O[C@H]1[C@@H]2C=CO[C@@H](O[C@@H]3O[C@H](CO)[C@@H](O)[C@H](O)[C@H]3O)[C@@H]2[C@@]2(CO)O[C@@H]12)c1ccc(O)c(O)c1 [verproside, 6-O-(3,4-dihydroxybenzoyl) catalpol]
expression of Mucin 5A/C (mRNA, RT-PCR) [2]: inhibited
number of total immunocyte in BALF compared with control group [3]: sharply reduced
reduction of number of neutrophils (Diff-Quik stained, cytospin) in BALF compared with control group [3]: more than 94.2%
reduction of total absolute cell number of CD4+ T cell in BALF compared with control group [3]: more than 32.9%
reduction of total absolute cell number of CD8+ T cell in BALF compared with control group [3]: not significantly different
reduction of total absolute cell number of Neutrophils+Gr-1+ cell in BALF compared with control group [3]: more than 93.9%
reduction of TNF-α in BALF compared with control group [4]: more than 42.2%
